Source: patent publication US4962110A, “Pyridazinone derivatives” (Smith Kline & French Laboratories Limited, priority 1989, dated 1990)

Assays:
PDE (Peak III) = test: Inhibition of phosphodiesterase PDE (Peak III) from cat heart; conditions: read-out: IC50 PDE (Peak III); 1 μM cyclic AMP, 37°, pH 7.5
Procedure: (§1) The enzyme was assayed by incubation at 37° for 4-30 min in 50 mM Tris, 5 mM MgCl2, pH 7.5 with [3-H] cyclic nucleotide (4×10^5 disintegrations min^-1) and [14-C] nucleotide 5' monophosphate (3-10^3 disintegrations min^-1). The assay was stopped by boiling, and the [3-H] […] The reaction mixture was diluted with 0.5 ml 100 mM HEPES (N-2-Hydroxyethylpiperazine-N'-2-ethanesulfonic acid), 100 mM NaCl, pH 8.5, and applied to the column. […] The recovery of product as judged by [14-C] recovery was approximately 80%. All assays were linear with time of incubation and concentration of enzyme over the range used in these experiments.

[1] = test system: right ventricular strips (force of contraction); test: Cardiac stimulant activity in vitro: force of contraction of electrically stimulated guinea pig ventricular strips; parameters: species or system Guinea pigs; conditions: Cavia porcellus, read-out: EC50 (50% increase in the force of contraction of the ventricular strips); guinea pig right ventricle strips, Krebs Henseleit, 37° C., 1.0 Hz, cumulative concentration response
Procedure: CARDIAC STIMULANT ACTIVITY--IN VITRO
The compounds of formula (I) and their pharmaceutically acceptable salts are tested for cardiac stimulant activity following a procedure based on that of S. C. Verma and J. H. McNeill (J. Pharm & Exp. Therapeutics, 200, 352-362 (1977)). Guinea pigs (500-700 g) of either sex are sacrificed and the hearts are quickly removed and transferred to a dissecting dish containing oxygenated bathing fluid. While in the bathing medium, the right ventricle is cut into two strips. The strips are each suspended in a 50 ml bath containing Krebs Henseleit solution at 37° C., and the bath is bubbled with 95% oxygen and 5% carbon dioxide. The ventricular strips are electrically stimulated at a frequency of 1.0 Hz, at double the threshold voltage. A resting tension of 1.0 g is applied to the strips and the tension is kept constant by readjustment during an equilibration period of 60 minutes. The bathing fluid is frequently changed during this period. When a steady base line is obtained, a compound under test is added to the bathing fluid and a cumulative concentration response curve is plotted.

PDE (Peak I) = test: Characterisation of PDE (Peak I) from cat heart: substrate kinetics; format: biochemical
PDE (Peak II) = conditions: in words
Procedure: as §1

Nc1cc(-c2ccncc2)c[nH]c1=O [Amrinone]
IC50 (PDE (Peak III)): 51800 nM

CC1CC(=O)NN=C1c1ccc(Nc2nc(=O)cc[nH]2)cc1 (centres unmarked) [Example 1, 6-[4-(1,4-Dihydro-4-oxo-2-pyrimidinylamino)phenyl]-5-methyl-4,5-dihydro-3(2H)-pyridazinone]
EC50 [1]: 600 nM | IC50 (PDE (Peak III)): 690 nM

Cc1cc(=O)nc(Nc2ccc(C3=NNC(=O)CC3C)cc2)[nH]1 (centres unmarked) [Example 2, 6-[4-(1,4-Dihydro-6-methyl-4-oxo-2-pyrimidinylamino)phenyl]-5-methyl-4,5-dihydro-3(2H)-pyridazinone]
IC50 (PDE (Peak III)): 450 nM

Cc1c[nH]c(Nc2ccc(C3=NNC(=O)CC3C)cc2)nc1=O (centres unmarked) [Example 3, 6-[4-(1,4-Dihydro-5-methyl-4-oxo-2-pyrimidinylamino)-phenyl]-5-methyl-4,5-dihydro-3(2H)-pyridazinone]
IC50 (PDE (Peak III)): 1120 nM

CC1CC(=O)NN=C1c1ccc(Nc2nc(=O)c3ccccc3[nH]2)cc1 (centres unmarked) [Example 4, 6-[4-(1,4-Dihydro-4-oxo-2-quinazolinylamino)phenyl]-5-methyl-4,5-dihydro-3(2H)-pyridazinone]
IC50 (PDE (Peak III)): 150 nM

Cc1[nH]c(=O)c(C#N)cc1-c1ccncc1 [Milrinone]
IC50 (PDE (Peak III)): 2200 nM

Nc1nc2c(ncn2[C@@H]2O[C@@H]3COP(=O)(O)O[C@H]3[C@H]2O)c(=O)[nH]1 [cyclic GMP]
affinity (PDE (Peak I); in words): high affinity | Km (PDE (Peak I); with 50 μg/ml calmodulin): 1.4 µM | Relative Vmax (PDE (Peak I); with 50 μg/ml calmodulin): 7.2 | affinity (PDE (Peak II)): relatively low affinities
